Reference: patent publication US11242333B2, “Inhibitors of plasma kallikrein” (Kalvista Pharmaceuticals Limited, priority 2013, dated 2022)
pIC50: −log10 of the molar value.

Assays:
[1] = target: Human plasma kallikrein (Homo sapiens (Human), UniProt P03952); test: Determination of the IC50 for plasma kallikrein; format: biochemical; conditions: 37° C., fluorogenic substrate H-DPro-Phe-Arg-AFC; read-out: IC50 (human PKal)
Protocol: Determination of the IC50 for plasma kallikrein
(§1) Plasma kallikrein inhibitory activity in vitro was determined using standard published methods (see e.g. Johansen et al., Int. J. Tiss. Reac. 1986, 8, 185; Shori et al., Biochem. Pharmacol., 1992, 43, 1209; Stürzebecher et al., Biol. Chem. Hoppe-Seyler, 1992, 373, 1025). Human plasma kallikrein (Protogen) was incubated at 37° C. with the fluorogenic substrate H-DPro-Phe-Arg-AFC and various concentrations of the test compound. Residual enzyme activity (initial rate of reaction) was determined by measuring the change in […] at 410 nm and the IC50 value for the test compound was determined.

[2] = target: Human KLK1 (Homo sapiens (Human), UniProt P06870); test: Determination of the IC50 for KLK1; format: biochemical; conditions: 37° C., fluorogenic substrate H-DVal-Leu-Arg-AFC
Sequence of Human KLK1 (P06870 25-262): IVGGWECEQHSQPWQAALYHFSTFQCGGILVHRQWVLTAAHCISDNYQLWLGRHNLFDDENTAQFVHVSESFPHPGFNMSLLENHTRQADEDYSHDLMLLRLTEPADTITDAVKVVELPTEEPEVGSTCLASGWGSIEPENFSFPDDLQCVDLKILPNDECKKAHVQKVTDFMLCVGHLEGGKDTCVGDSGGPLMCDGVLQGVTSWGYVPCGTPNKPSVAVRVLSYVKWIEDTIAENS
Protocol: Determination of the IC50 for KLK1
as §1, with “KLK1” for “Plasma kallikrein”, “KLK1 (Callbiochem)” for “plasma kallikrein (Protogen)”, “H-DVal-Leu-Arg-AFC” for “H-DPro-Phe-Arg-AFC”

Sequence of Human plasma kallikrein (P03952 391-638): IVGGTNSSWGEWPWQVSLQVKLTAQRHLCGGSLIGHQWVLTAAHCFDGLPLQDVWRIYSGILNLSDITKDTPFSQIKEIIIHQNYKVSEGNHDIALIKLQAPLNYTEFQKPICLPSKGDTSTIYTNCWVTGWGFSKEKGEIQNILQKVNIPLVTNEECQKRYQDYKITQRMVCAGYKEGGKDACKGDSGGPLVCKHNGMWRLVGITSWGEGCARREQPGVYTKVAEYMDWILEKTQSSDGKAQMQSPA
Sequence of Human plasma kallikrein (P03952 20-390 partner): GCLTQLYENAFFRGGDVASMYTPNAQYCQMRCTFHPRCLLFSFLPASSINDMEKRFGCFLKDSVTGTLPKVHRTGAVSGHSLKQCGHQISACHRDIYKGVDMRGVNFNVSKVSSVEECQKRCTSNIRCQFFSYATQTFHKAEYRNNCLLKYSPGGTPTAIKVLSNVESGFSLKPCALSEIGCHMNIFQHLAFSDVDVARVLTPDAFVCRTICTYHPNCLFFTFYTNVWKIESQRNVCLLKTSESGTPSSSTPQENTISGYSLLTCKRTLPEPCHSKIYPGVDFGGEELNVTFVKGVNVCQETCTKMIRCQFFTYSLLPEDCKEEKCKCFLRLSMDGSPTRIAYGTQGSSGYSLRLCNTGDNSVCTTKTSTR

With `Cc1cnn(Cc2ccc(Cc3cncc(C(=O)NCc4ccc5c(N)nccc5c4)c3)cc2)c1` [Example 1] as the compound, how does the pIC50 [1] read?
Its pIC50 is 8.41.

`Cc1cnn(Cc2ccc(Cc3cncc(C(=O)NCc4cnc5[nH]ccc5c4)c3)cc2)c1` [Example 2, 5-({4-[(4-Methylpyrazol-1-yl)methyl]phenyl}methyl)-N-{7H-pyrrolo[2,3-b]pyridin-5-ylmethyl}pyridine-3-carboxamide] was tested. Which pIC50 [1] did it give?
The pIC50 was 6.67.

How did the pIC50 [1] turn out when `Cc1cnn(Cc2ccc(Cc3ccnc(C(=O)NCc4cnc5[nH]ccc5c4)c3)cc2)c1` [Example 4, 4-({4-[(4-Methylpyrazol-1-yl)methyl]phenyl}methyl)-N-{7H-pyrrolo[2,3-b]pyridin-5-ylmethyl}pyridine-2-carboxamide] was run?
The pIC50 was 5.18.

How did the pIC50 [1] turn out when `O=C(NCc1cnc2[nH]ccc2c1)c1ccc(=O)n(Cc2ccc(Cn3ccccc3=O)cc2)c1` [Example 6, 6-Oxo-1-({4-[(2-oxopyridin-1-yl)methyl]phenyl}methyl)-N-{7H-pyrrolo[2,3-b]pyridin-5-ylmethyl}pyridine-3-carboxamide] was run?
The pIC50 was 6.24.

What about the pIC50 [2] of the same compound?
The pIC50 was 4.56.
